According to ChEMBL document CHEMBL1201862, “PubChem BioAssay data set” (2004):
Values joined by “and” are separate entries in the source; they are usually repeats but may differ in a detail not shown here. Equal entries are not always repeated. Each block holds one molecule with its values, some of them ahead of it. Active and inactive are the calls of the source.

Tests used:
[1] = biological target: Cytochrome P450 2D6 (Homo sapiens, UniProt P10635);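 further: CYP2D6 member of a cytochrome P450 panel assay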
[2] = NIH3T3 cell viability loss – ATP luminescence, mouse fibroblasts, counter-screen, dose response (AID 2010); format: functional, cell-based;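 further: cells exposed to compound for about 90 hours before reading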
[3] = Trypanosoma cruzi growth suppression in host cells – NIH3T3 host cells, beta-gal luminescence, confirmation (AID 2044); format: functional, cell-based;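 further: intracellular parasites grown in NIH/3T3 mouse fibroblasts as host cells; luminescent beta-galactosidase reporter signal from transgenic T. cruzi replicating inside host cells; inhibitors lower the luminescence signal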
[4] = biological target: Cytochrome P450 2C9 (Homo sapiens, UniProt P11712)
[5] = biological target: T1, Corticotropin-releasing factor receptor 2/Corticotropin-releasing factor-binding protein (Homo sapiens, UniProt P24387+Q13324); experiment: activators of CRF receptor 2 with binding protein – uHTS hits, confirmation (AID 602473); format: functional; settings: read-out: EC50_Mean
T1 sequence (Q13324 whole entry): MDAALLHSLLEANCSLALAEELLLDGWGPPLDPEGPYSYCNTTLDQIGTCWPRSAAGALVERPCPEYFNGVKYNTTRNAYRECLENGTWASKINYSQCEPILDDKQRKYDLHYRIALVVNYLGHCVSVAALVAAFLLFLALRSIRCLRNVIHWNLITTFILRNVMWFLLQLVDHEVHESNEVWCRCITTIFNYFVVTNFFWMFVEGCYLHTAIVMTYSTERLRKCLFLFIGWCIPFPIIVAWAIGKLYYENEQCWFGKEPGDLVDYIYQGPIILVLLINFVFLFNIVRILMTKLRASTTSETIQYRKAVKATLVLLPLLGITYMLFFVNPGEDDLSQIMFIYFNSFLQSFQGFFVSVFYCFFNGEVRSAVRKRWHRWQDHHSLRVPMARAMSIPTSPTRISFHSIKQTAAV
T1 sequence (P24387 whole entry): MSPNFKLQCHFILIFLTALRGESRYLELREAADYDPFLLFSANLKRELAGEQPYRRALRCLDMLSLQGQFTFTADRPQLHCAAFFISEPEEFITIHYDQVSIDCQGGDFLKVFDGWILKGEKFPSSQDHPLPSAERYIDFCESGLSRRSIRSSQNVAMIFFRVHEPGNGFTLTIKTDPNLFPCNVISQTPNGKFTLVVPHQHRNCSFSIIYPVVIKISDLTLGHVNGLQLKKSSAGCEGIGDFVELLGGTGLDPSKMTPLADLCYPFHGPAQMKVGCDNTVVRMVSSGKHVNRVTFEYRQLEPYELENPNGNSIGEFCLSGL

[6] = viability of uninfected HEp-2 cells – cell-based, HTS, cytotoxicity control for RSV inhibitor project, dose response (AID 2410); format: functional; settings: human respiratory syncytial virus
[7] = biological target: T2, Cytochrome P450 1A2 (Homo sapiens, UniProt P05177);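 further: PubChem cytochrome P450 panel assay, CYP1A2 panel member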
T2 sequence (P05177 whole entry): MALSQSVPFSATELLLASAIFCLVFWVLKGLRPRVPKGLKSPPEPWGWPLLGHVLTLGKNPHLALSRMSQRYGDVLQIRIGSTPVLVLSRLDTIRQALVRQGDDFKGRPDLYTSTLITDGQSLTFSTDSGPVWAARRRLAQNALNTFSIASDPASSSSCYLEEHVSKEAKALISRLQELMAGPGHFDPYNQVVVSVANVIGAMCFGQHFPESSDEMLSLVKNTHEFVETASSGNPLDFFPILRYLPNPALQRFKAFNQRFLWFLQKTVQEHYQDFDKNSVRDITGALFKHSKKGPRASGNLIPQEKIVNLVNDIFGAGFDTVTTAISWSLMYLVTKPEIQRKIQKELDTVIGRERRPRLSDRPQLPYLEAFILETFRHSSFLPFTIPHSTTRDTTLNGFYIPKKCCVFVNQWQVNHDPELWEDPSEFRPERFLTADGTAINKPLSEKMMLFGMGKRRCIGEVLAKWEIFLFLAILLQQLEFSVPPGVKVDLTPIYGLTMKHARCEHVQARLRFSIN

Chain of Cytochrome P450 2C9 (P11712 whole entry): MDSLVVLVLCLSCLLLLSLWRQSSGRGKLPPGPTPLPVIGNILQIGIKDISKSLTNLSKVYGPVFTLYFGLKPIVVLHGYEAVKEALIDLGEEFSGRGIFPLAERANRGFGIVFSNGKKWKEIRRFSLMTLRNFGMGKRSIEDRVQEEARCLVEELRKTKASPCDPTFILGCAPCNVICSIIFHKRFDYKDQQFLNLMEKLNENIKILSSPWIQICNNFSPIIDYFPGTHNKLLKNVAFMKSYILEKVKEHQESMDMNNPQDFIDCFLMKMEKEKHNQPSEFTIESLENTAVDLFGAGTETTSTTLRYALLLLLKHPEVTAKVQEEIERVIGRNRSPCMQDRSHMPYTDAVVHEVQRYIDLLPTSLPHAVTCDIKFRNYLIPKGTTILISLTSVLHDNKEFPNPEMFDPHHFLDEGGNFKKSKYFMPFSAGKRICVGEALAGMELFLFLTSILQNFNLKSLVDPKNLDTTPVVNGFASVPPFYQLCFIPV
Chain of Cytochrome P450 2D6 (P10635 whole entry): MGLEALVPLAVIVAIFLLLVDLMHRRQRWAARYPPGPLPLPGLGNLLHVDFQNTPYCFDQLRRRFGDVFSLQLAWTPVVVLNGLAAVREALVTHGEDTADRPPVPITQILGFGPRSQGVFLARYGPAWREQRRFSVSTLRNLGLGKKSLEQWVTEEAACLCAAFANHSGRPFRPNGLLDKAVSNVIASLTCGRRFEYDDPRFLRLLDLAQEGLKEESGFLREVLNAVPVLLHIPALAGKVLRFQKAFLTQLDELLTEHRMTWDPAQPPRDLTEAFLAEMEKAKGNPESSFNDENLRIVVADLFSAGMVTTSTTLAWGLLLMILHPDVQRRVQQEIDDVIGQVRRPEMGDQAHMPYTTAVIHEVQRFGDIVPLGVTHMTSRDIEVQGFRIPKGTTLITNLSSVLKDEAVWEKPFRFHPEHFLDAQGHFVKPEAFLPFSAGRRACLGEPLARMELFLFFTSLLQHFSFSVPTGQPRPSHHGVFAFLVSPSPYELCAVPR

AC50 [1]: 0.562 µM (inconclusive)
Structure (SMILES): CCOC(=O)NC(=O)CSc1nc2cc(OCC)ccc2[nH]1

AC50 [4]: 15.8 µM (inconclusive)
Structure (SMILES): CCOC(=O)C(C)Sc1nnc(CNC(=O)c2ccc(OC)cc2)n1C1CCCCC1 (centres undefined)

EC50 [5]: > 53 µM (inactive)
Structure (SMILES): c1ccc(CCNc2nc3ccccc3n3nnnc23)cc1

AC50 [7]: 3.16 µM (inconclusive)
Structure (SMILES): Clc1ccc2c(N3CCC(CCC4CCN(c5ncnc6cc(Cl)ccc56)CC4)CC3)ncnc2c1

AC50 [7]: 25.1 µM (inconclusive)
AC50 [1]: 20 µM (inconclusive)
Structure (SMILES): O=C(c1cc(C(F)(F)F)cc(C(F)(F)F)c1)N1CCC[C@@]2(CCN(c3ccccn3)C2)C1

AC50 [1]: 20 µM (inconclusive)
Structure (SMILES): COc1cccc(-c2cncnc2NCc2cccs2)c1

AC50 [1]: 39.8 µM (inconclusive)
AC50 [4]: 39.8 µM (inconclusive)
Structure (SMILES): Cc1ccc(CNC(=O)c2nnn(-c3cccc(C)c3)c2N)cc1

AC50 [4]: 10 µM (inconclusive)
Structure (SMILES): O=S(=O)(c1ccccc1)N1CCC[C@@]2(CCN(C(c3ccccc3)c3ccccc3)C2)C1

AC50 [7]: 15.8 µM (inconclusive)
Structure (SMILES): COC(=O)Cn1c(C(=O)N2CCCC2)cc2c1C[C@H]1CN(C(=O)c3ccccc3)[C@@](Cc3ccc(F)cc3)(C(=O)OC)[C@@H]21

AC50 [4]: 0.794 µM (inconclusive)
Structure (SMILES): COc1ccc2[nH]cc(CCNc3ccnc(-c4cccnc4)n3)c2c1

AC50 [7]: 25.1 µM (inconclusive)
Structure (SMILES): CN(C)C(=O)c1ccc(-c2cncnc2NC2CCNCC2)cc1

AC50 [7]: 12.6 µM (inconclusive)
AC50 [1]: 39.8 µM (inconclusive)
AC50 [4]: 31.6 µM (inconclusive)
Structure (SMILES): N#Cc1cccc(NC(=O)N2CCCC3(CCN(C(=O)c4cccc(F)c4)CC3)C2)c1

AC50 [1]: 2.51 µM (inconclusive)
AC50 [4]: 3.98 µM (inconclusive)
Structure (SMILES): CCCNC(=O)OC[C@@H]1O[C@H](CCO/N=C(\C)CCN2CCCCc3nc(C)c(C)cc32)C=C[C@@H]1Oc1ccc(OC)cc1

AC50 [7]: 6.31 µM (inconclusive)
AC50 [1]: 20 µM (inconclusive)
Structure (SMILES): CCOc1ccccc1Nc1nc(-c2sc(NC(=O)c3ccccc3)nc2C)cs1

AC50 [7]: 25.1 µM (inconclusive)
Structure (SMILES): CCCCSC(=S)N(C)C1CCS(=O)(=O)C1 (centres undefined)

AC50 [7]: 10 µM (inconclusive)
AC50 [4]: 12.6 µM (inconclusive)
Structure (SMILES): COCCn1c(=O)c(-c2cccc(C#N)c2)nc2cnc(N3CCOCC3)nc21

AC50 [4]: 0.398 µM (inconclusive)
Structure (SMILES): COc1ccccc1CNc1ncnc2ccc(-c3ccc4c(c3)OCO4)cc12

EC50 [5]: > 53 µM (inactive)
Structure (SMILES): Cc1csc(NC(=O)Cc2ccccc2[N+](=O)[O-])n1

AC50 [7]: 25.1 µM (inconclusive)
AC50 [1]: 20 µM (inconclusive)
Structure (SMILES): CC(C)OC(=O)c1cc2c(ccn2C)n1CC(=O)N1CCC(Cc2ccccc2)CC1

AC50 [4]: 2.51 µM (inconclusive)
Structure (SMILES): C/C(CCC(=O)OC[C@@H]1O[C@H](C#Cc2ccccc2)C=C[C@@H]1Oc1ccc(C)cc1)=N/O[C@@H](C)CN1CCCc2nc(C)c(C)cc21

AC50 [1]: 3.16 µM (inconclusive)
Structure (SMILES): COc1ccc(-c2ccc3c(n2)CCCN3C[C@H](O)CN2CCCc3nc(C)c(C)cc32)cc1

AC50 [1]: 31.6 µM (inconclusive)
Structure (SMILES): Cc1cccc(CNc2cc(-c3c(C)noc3C)ncn2)c1

AC50 [4]: 31.6 µM (inconclusive)
Structure (SMILES): COc1ccc(-n2c(=O)c(-c3ccc(Cl)cc3)nc3cnc(N4CCOCC4)nc32)cc1

AC50 [7]: 14.1 µM (inconclusive)
Structure (SMILES): CCCCC(=O)Nc1cc(OCC)c(NC(=O)c2ccccc2[N+](=O)[O-])cc1OCC

AC50 [4]: 12.6 µM (inconclusive)
Structure (SMILES): CCN(CC)CCNC(=O)c1ccc(Cl)c(S(=O)(=O)Nc2ccccc2OC)c1

AC50 [7]: 1.26 µM (inconclusive)
AC50 [4]: 3.16 µM (inconclusive)
Structure (SMILES): CSc1cc(C)nc(NC(C)=O)n1

EC50 [5]: 9.53 µM (active)
Structure (SMILES): COc1ccc(CC(=O)NC(=S)Nc2cccc(C)c2)cc1

AC50 [1]: 15.8 µM (inconclusive)
AC50 [4]: 17.8 µM (inconclusive)
Structure (SMILES): COc1cc(O)oc1/C=N/c1ccc(C(F)(F)F)cc1

AC50 [7]: 22.4 µM (inconclusive)
Structure (SMILES): Cc1cc(C(=O)N/N=C/c2cccc(OC(=O)c3ccco3)c2)[nH]n1

AC50 [1]: 39.8 µM (inconclusive)
Structure (SMILES): CC(C)(C)c1cc(/C=C(\C#N)C(N)=S)cc(C(C)(C)C)c1O [TYRPHOSTIN AG 879]

More lines, now with the values behind:

Structure (SMILES): O=C(Nc1ccncc1)c1ccc(Cl)c(Cl)c1
EC50 [2]: > 30 µM (not active)
EC50 [3]: 0.472 µM (active)

Structure (SMILES): Cc1cc(C)n(-c2ccc3nnc(C)n3n2)n1
CC50 [6]: 22 µM (active)

Structure (SMILES): CC(Oc1ccc(-c2ccccc2)cc1)C(=O)O (centres undefined)
AC50 [7]: 25.1 µM (inconclusive)
AC50 [4]: 39.8 µM (inconclusive)

Structure (SMILES): O=C1C2Sc3nc(O)sc3C(c3ccccc3)C2C(=O)N1c1ccc(Cl)cc1 (centres undefined)
AC50 [1]: 22.4 µM (inconclusive)

Structure (SMILES): Cn1c(=O)c([N+](=O)[O-])c(NCCc2ccccc2)c2ccccc21
EC50 [2]: > 60 µM (not active)
EC50 [3]: 0.554 µM (active)

Structure (SMILES): CC(C)NC[C@@H](O)COc1ccc(CCOCC2CC2)cc1
AC50 [7]: 15.8 µM (inconclusive) and 12.6 µM (inconclusive)

Structure (SMILES): Cc1[nH]c2ccc(F)cc2c1CCN(Cc1cccnc1)C(S)=Nc1ccccc1
EC50 [2]: > 60 µM (not active)
EC50 [3]: 0.953 µM (active)

Structure (SMILES): O=C(c1cnccn1)N1CCC[C@@]2(CCN(c3ccccc3)C2)C1
AC50 [7]: 15.8 µM (inconclusive)

Structure (SMILES): COc1cc(CN2CCCC(C(=O)Nc3cccc(-n4cccn4)c3)C2)ccc1F (centres undefined)
EC50 [2]: > 60 µM (not active)
EC50 [3]: 0.194 µM (active)

Structure (SMILES): O=C(Nc1ccccc1C(=O)O)c1cc(S(=O)(=O)N2CCCCC2)c(Cl)cc1Cl
EC50 [2]: 14 µM (active)
EC50 [3]: 3.6 µM (active)

Structure (SMILES): Clc1ccc2[nH]cc(-c3nnnn3-c3ccc4ccccc4c3)c2c1
EC50 [2]: > 60 µM (not active)
EC50 [3]: 1.97 µM (active)

Structure (SMILES): O=C(NCc1nnc2c3ccccc3c(-c3ccccc3)nn12)c1ccc(Cl)cc1
CC50 [6]: 7.36 µM (active)

Structure (SMILES): CCN1CCCc2cc(CN(CCN3CCOCC3)C(S)=Nc3cccc(C)c3)ccc21
EC50 [2]: > 60 µM (not active)
EC50 [3]: 1.62 µM (active)

Structure (SMILES): CCN(CC)CCCOC(=O)c1ccc(OC)cc1O
EC50 [2]: > 60 µM (not active)
EC50 [3]: 0.743 µM (active)

Structure (SMILES): Cc1ccc(S(=O)(=O)c2nc(S(=O)(=O)c3ccc(C)cc3)c(NCc3ccco3)s2)cc1
AC50 [4]: 5.62 µM (inconclusive)

Structure (SMILES): CC(=O)Nc1ccc(Cc2ccc3nc(O)cc(C)c3c2)cc1
AC50 [4]: 6.31 µM (inconclusive)

Structure (SMILES): COc1ccc(C2SCC(=O)N2CC23CC4CC(CC(C4)C2)C3)cc1 (centres undefined)
EC50 [2]: > 60 µM (not active)
EC50 [3]: 2.87 µM (active)

Structure (SMILES): Cn1c(C(=O)OC(C(=O)NC2CCCCC2)c2ccncc2)cc2sccc21 (centres undefined)
EC50 [2]: > 30 µM (not active)
EC50 [3]: > 30 µM (not active)

Structure (SMILES): CSc1ccc(CN(C)CCc2ccccn2)cc1
EC50 [2]: > 30 µM (not active)
EC50 [3]: 0.143 µM (active)

Structure (SMILES): O=C(C[N+]1(c2ccccc2)CCOCC1)c1ccccc1
AC50 [4]: 6.31 µM (inconclusive)

Structure (SMILES): CCN1CCN(CC(=O)N2CCCC(C(=O)c3ccc(Oc4ccccc4)cc3)C2)CC1 (centres undefined)
EC50 [2]: > 30 µM (not active)
EC50 [3]: 0.478 µM (active)

Structure (SMILES): OCCC1CN(Cc2ccc3nonc3c2)CCN1Cc1ccsc1 (centres undefined)
EC50 [2]: > 60 µM (not active)
EC50 [3]: 0.452 µM (active)

Structure (SMILES): CCOc1cc(C)c(C(C)C)cc1S(=O)(=O)n1cnc(C)c1
EC50 [2]: 8.49 µM (active)
EC50 [3]: 1.53 µM (active)
EC50 [5]: > 53 µM (inactive)

Structure (SMILES): CCN1CCN(c2ccc(NC(=O)C(C)C)cc2Cl)CC1
AC50 [1]: 14.1 µM (inconclusive)

Structure (SMILES): CCOC(=O)N1CCC(N2CCCC(C(=O)c3cc(F)ccc3OC)C2)CC1 (centres undefined)
EC50 [2]: > 60 µM (not active)
EC50 [3]: 2.66 µM (active)

Structure (SMILES): c1ccc(Cc2ccc(OCCCNC3CCCC3)cc2)cc1
EC50 [2]: > 30 µM (not active)
EC50 [3]: 0.781 µM (active)

Structure (SMILES): Cc1nn(-c2ccc([N+](=O)[O-])cc2)c2c1C(c1cccc(Br)c1)N1C(=N2)C(=O)Nc2ccccc21 (centres undefined)
EC50 [2]: > 60 µM (not active)
EC50 [3]: 2.13 µM (active)

Structure (SMILES): O=C(N/N=C/c1ccc([N+](=O)[O-])o1)C(O)c1ccccc1 (centres undefined)
EC50 [2]: > 60 µM (not active)
EC50 [3]: 0.565 µM (active)

Structure (SMILES): Cc1ccc(S(=O)(=O)N/N=C\c2cn(-c3ccccc3)nc2-c2ccccc2)cc1
CC50 [6]: 13.2 µM (active)
